This test deals with T1, IRAK4 (Homo sapiens, UniProt Q9NWZ3).
T1 sequence (Q9NWZ3 1-460): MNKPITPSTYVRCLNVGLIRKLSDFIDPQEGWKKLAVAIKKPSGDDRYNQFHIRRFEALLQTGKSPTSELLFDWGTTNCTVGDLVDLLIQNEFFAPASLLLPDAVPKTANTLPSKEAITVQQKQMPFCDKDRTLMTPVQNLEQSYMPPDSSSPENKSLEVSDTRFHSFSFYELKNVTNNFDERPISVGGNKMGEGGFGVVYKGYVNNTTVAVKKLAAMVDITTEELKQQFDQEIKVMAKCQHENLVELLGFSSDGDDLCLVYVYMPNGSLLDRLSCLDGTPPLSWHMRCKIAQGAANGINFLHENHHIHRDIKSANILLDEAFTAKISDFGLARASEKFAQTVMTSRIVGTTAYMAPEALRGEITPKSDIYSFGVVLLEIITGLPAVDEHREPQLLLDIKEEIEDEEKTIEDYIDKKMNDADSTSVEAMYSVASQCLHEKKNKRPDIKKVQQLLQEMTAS
Kind of test: Hibit fluorescence detection of proteolysis (IRAK4-HiBiT in HEK293T cells). Format: cell-based. Also on record: host or cells: HEK293T (ATCC). The conditions noted are these: for Dmax: HEK-293T; for DC50: IRAK4-HiBiT, HEK293T cells, 24 h. In short, it runs like this: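 Degradation read-out: luminescence from lytic HiBiT detection (15 min, room temperature) after 24 h compound exposure (37 °C, 5% CO2) of HEK293T cells transiently expressing IRAK4 fused to a HiBiT tag. Data fitted to a bell-shaped four-parameter model giving two EC50 values.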

Structures can show the parent of a compound that is named as a salt. Where two headings read alike, the source gives them in different places. A value given as a limit tells only on which side of the number the result lay.

20 molecules from patent EP4759807A1, “PROTEOLYSIS TARGETING CHIMERA COMPOUND FOR DEGRADING IRAK4 AND USE THEREOF” (Shenzhen Zhongge Biological Technology Co., Ltd., priority 2023, dated 2025) can be followed below.

`Cn1c(=O)n(C2CCC(=O)NC2=O)c2cccc(N3CCC4(CCN(C[C@H]5CC[C@H](n6cc(-n7cc(-c8cnn9cc(C#N)cnc89)nn7)c(C(F)F)n6)CC5)C4)CC3)c21` (stereo partly shown) [Compound 189]: the Dmax lay in the range of 60 to 70%. Besides, the DC50 (read-out: DC50) was in the range of 0.5 to 1 nM.

The molecule `Cn1c(=O)n(C2CCC(=O)NC2=O)c2cccc(N[C@H]3CC[C@H](N(C)C[C@H]4CC[C@H](n5cc(-n6cc(-c7cnn8ccc(NCC9CC9)nc78)nn6)c(C(F)F)n5)CC4)CC3)c21` (stereo partly shown) [Compound 226] showed a Dmax of over 80%. For the same molecule, the DC50 (read-out: DC50) is under 0.5 nM.

Take `Cn1c(=O)n(C2CCC(=O)NC2=O)c2cccc(N3CCC4(CCN(C[C@H]5CC[C@H](n6cc(-n7cc(-c8cnn9ccc(N%10CCNCC%10)nc89)nn7)c(C(F)F)n6)CC5)CC4)C3)c21` (stereo partly shown) [Example 130, 3-(4-(8-(((1r,4r)-4-(3-(difluoromethyl)-4-(4-(5-(piperazin-1-yl)pyrazolo[1,5-a]pyrimidin-3-yl)-1H-1,2,3-triazol-1-yl)-1H-pyrazol-1-yl)cyclohexyl)methyl)-2,8-diazaspiro[4.5]dec-2-yl)-3-methyl-2-oxo-2,3-dihydro-1H-benzo[d]imidazol-1-yl)piperidine-2,6-dione dihydrochloride]: the Dmax is over 80% and the DC50 lay within 0.5 to 1 nM.

Consider `Cn1c(=O)n(C2CCC(=O)NC2=O)c2cccc(N3CC4CCC(C3)N4C[C@H]3CC[C@H](n4cc(-n5cc(-c6ccc7cc(C(N)=O)cnn67)nn5)c(C(F)F)n4)CC3)c21` (stereo partly drawn) [Example 86, 7-(1-(3-(difluoromethyl)-1-((1R,4R)-4-(3-(1-(2,6-dioxy-3-yl)-3-methyl-2-oxo-2,3-dihydro-1H-benzo[d]imidazol-4-yl)-3,8-diazabicyclo[3.2.1]oct-8-yl)methyl)cyclohexyl-1H-pyrazol-4-yl)-1H-1,2,3-triazol-4-yl)pyrrolo[1,2-b]pyridazine-3-carboxamide], for which the Dmax is over 80% and the DC50 lay in the range of 1 to 5 nM.

For the molecule `Cn1c(=O)n(C2CCC(=O)NC2=O)c2cccc(CN3CC4(C3)CN(C[C@H]3CC[C@H](n5cc(-n6cc(-c7cnn8ccc(N9CCOCC9)nc78)nn6)c(C(F)F)n5)CC3)C4)c21` (stereo partly shown) [Example 12, 3-(4-((6-(((1r,4r)-4-(3-(difluoromethyl)-4-(4-(5-morpholinopyrazolo[1,5-a]pyrimidin-3-yl)-1H -1,2,3-triazol-1-yl)-1H-pyrazol-1-yl)cyclohexyl)methyl)-2,6-diazaspiro[3.3]hept-2-yl)methyl)-3-methyl-2-oxo-2,3-dihydro-1H-benzo[d]imidazol-1-yl)piperidine-2,6-dione], the Dmax is 70 to 80% and the DC50 was under 0.5 nM.

Molecule `Cn1c(=O)n(C2CCC(=O)NC2=O)c2cccc(N3C4CCC3CN(C[C@H]3CC[C@H](n5cc(-n6cc(-c7ccc8cc(C(N)=O)cnn78)nn6)c(C(F)F)n5)CC3)C4)c21` (stereo partly shown) [Example 92, 7-(1-(3-(difluoromethyl)-1-((1r,4r)-4-(8-(1-(2,6-dioxopiperidin-3-yl)-3-methyl-2-oxo-2,3-dihydro-1H-benzo[d]imidazol-4-yl)-3,8-diazabicyclo[3.2.1]oct-3-yl)methyl)cyclohexyl-1H-pyrazol-4-yl)-1H-1,2,3-triazol-4-yl)pyrrolo[1,2-b]pyridazine-3-carboxamide] gave a Dmax of over 80% and a DC50 of 1 to 5 nM.

As to `CN1CCN(c2ccn3ncc(-c4cn(-c5cn([C@H]6CC[C@H](CN7CCC8(CC7)CCN(c7cccc9c7n(C)c(=O)n9C7CCC(=O)NC7=O)C8)CC6)nc5C(F)F)nn4)c3n2)CC1` (stereo partly shown) [Compound 228], the Dmax fell in the range of 70 to 80%. Besides, for the setting “read-out: DC50”, the DC50 was under 0.5 nM.

`Cn1c(=O)n(C2CCC(=O)NC2=O)c2cccc(N3CCN(C4CCN(C[C@H]5CC[C@H](n6cc(-n7cc(-c8cnn9ccc(N%10CCC(C)(O)CC%10)nc89)nn7)c(C(F)F)n6)CC5)CC4)CC3)c21` (stereo partly shown) [Compound 236] came in with a Dmax of over 80%. The DC50 (read-out: DC50) was under 0.5 nM.

Consider `Cn1c(=O)n(C2CCC(=O)NC2=O)c2cccc(N3CCC4(CC3)CN(C[C@H]3CC[C@H](n5cc(-n6cc(-c7cnn8ccc(N9CCOCC9)nc78)nn6)c(C(F)F)n5)CC3)CCO4)c21` (stereo partly shown) [Example 41], for which the Dmax was 70 to 80% and the DC50 fell in the range of 1 to 5 nM.

`C[C@H]1CN(c2cccc3c2n(C)c(=O)n3C2CCC(=O)NC2=O)CCN1C[C@H]1CC[C@H](n2cc(-n3cc(-n4ccc5cc(C(N)=O)cnc54)nn3)c(C(F)F)n2)CC1` (stereo partly shown) [Example 156] came in with a Dmax of over 80% and a DC50 of under 0.5 nM.

In turn, `Cn1c(=O)n(C2CCC(=O)NC2=O)c2cccc(N3CCN(C[C@H]4CC[C@H](n5cc(-n6cc(-n7ccc8cc(C(N)=O)cnc87)nn6)c(C(F)F)n5)CC4)CC3)c21` (stereo partly shown) [Example 100, 1-(1-(3-(difluoromethyl)-1-((1r,4r)-4-((4-(1-(2,6-dioxopiperidin-3-yl)-3-methyl-2-oxo-2,3-dihydro-1H-benzo[d]imidazol-4-yl)piperazin-1-yl)methyl)cyclohexyl)-1H-pyrazol-4-yl)-1H-1,2,3-triazol-4-yl)-1H-pyrrolo[2,3-b]pyridine-5-carboxamide] displayed a Dmax of 60 to 70% and a DC50 of 0.5 to 1 nM.

`Cn1c(=O)n(C2CCC(=O)NC2=O)c2cccc(N3CC(N4CCN(C[C@H]5CC[C@H](n6cc(-n7cc(-c8cnn9ccc(N%10CCOCC%10)nc89)nn7)c(C(F)F)n6)CC5)CC4)C3)c21` (stereo partly shown) [Example 42, 3-(4-(3-(4-(((1r,4r)-4-(3-(difluoromethyl)-4-(4-(5-morpholinopyrazolo[1,5-a]pyrimidin-3-yl)-1H-1,2,3-triazol-1-yl)-1H-pyrazol-1-yl)cyclohexyl)methyl)piperazin-1-yl)azetidin-1-yl)-3-methyl-2-oxo-2,3-dihydro-1H-benzo[d]imidazol-1-yl)piperidine-2,6-dione] showed a Dmax of under 60% and a DC50 of under 0.5 nM.

The molecule `Cn1c(=O)n(C2CCC(=O)NC2=O)c2cccc(N3CCN(C4CCN(C[C@H]5CC[C@H](n6cc(-n7cc(-c8cnn9ccc(NCCC(C)(C)O)nc89)nn7)c(C(F)F)n6)CC5)CC4)CC3)c21` (stereo partly shown) [Example 133] gave a Dmax of over 80% and a DC50 of under 0.5 nM.

Take `NC(=O)c1cnn2c(-c3cn(-c4cn([C@H]5CC[C@H](CN6CC7(CC(CCNc8cccc9c8C(=O)N(C8CCC(=O)NC8=O)C9=O)C7)C6)CC5)nc4C(F)F)nn3)ccc2c1` (stereo partly shown) [Example 76, 7-(1-(3-(difluoromethyl)-1-((1r,4r)-4-((6-(2-((2-(2,6-dioxopiperidin-3-yl)-1,3-dioxoisoindolin-4-yl)amino)ethyl)-2-azaspiro[3.3]hept-2-yl)methyl)cyclohexyl)-1H-pyrazol-4-yl)-1H-1,2,3-triazol-4-yl)pyrrolo[1,2-b]pyridazine-3-carboxamide]: the Dmax is under 60% and the DC50 was under 0.5 nM.

In turn, `Cn1c(=O)n(C2CCC(=O)NC2=O)c2cccc(N[C@H]3CC[C@H](N(C)C[C@H]4CC[C@H](n5cc(-n6cc(-c7cnn8ccc(N9CCC(C)(O)CC9)nc78)nn6)c(C(F)F)n5)CC4)CC3)c21` (stereo partly shown) [Compound 237] had a Dmax of 70 to 80%. Under “read-out: DC50”, the DC50 was under 0.5 nM.

`Cn1c(=O)n(C2CCC(=O)NC2=O)c2cccc(N3CCC(N4CCN(C[C@H]5CC[C@H](n6cc(-n7cc(-c8cnn9ccc(N%10CCC[C@H](N)C%10)nc89)nn7)c(C(F)F)n6)CC5)CC4)CC3)c21` (stereo partly drawn) [Example 150, 3-(4-(4-(1R,4R)-4-(4-(4-(5-(S)-3-aminopiperidin-1-yl)pyrazolo[1,5-a]pyrimidin-3-yl)-1H-1,2,3-triazol-1-yl)-3-(difluoromethyl)-1H-pyrazol-1-yl)cyclohexyl)methyl)piperazin-1-yl)piperidin-1-yl)-3-methyl-2-oxo-2,3-dihydro-1H-benzoimidazol-1-yl)piperidine-2,6-dione hydrochloride] came in with a Dmax of over 80% and a DC50 of under 0.5 nM.

`CN1CCN(c2ccn3ncc(-c4cn(-c5cn([C@H]6CC[C@H](CN7CCC8(CCN(c9cccc%10c9n(C)c(=O)n%10C9CCC(=O)NC9=O)CC8)C7)CC6)nc5C(F)F)nn4)c3n2)CC1` (stereo partly shown) [Compound 232] returned a Dmax of over 80%. Also, the DC50 (read-out: DC50) lay within 0.5 to 1 nM.

In turn, `Cn1c(=O)n(C2CCC(=O)NC2=O)c2cccc(C#CC3CN(C[C@H]4CC[C@H](n5cc(-n6cc(-c7ccc8cc(C(N)=O)cnn78)nn6)c(C(F)F)n5)CC4)C3)c21` (stereo partly shown) [Example 87] registered a Dmax of 70 to 80% and a DC50 of 0.5 to 1 nM.

On to `Cn1c(=O)n(C2CCC(=O)NC2=O)c2cccc(NC(=O)C3CCN(C[C@H]4CC[C@H](n5cc(-n6cc(-c7ccc8cc(C(N)=O)cnn78)nn6)c(C(F)F)n5)CC4)CC3)c21` (stereo partly shown) [Example 69, 7-(1-(3-(difluoromethyl)-1-((1r,4r)-4-((4-((1-(2,6-dioxopiperidin-3-yl)-3-methyl-2-oxo-2,3-dihydro-1H-benzo[d]imidazol-4-yl)carbamoyl)piperidin-1-yl)methyl)cyclohexyl)-1H-pyrazol-4-yl)-1H-1,2,3-triazol-4-yl)pyrrolo[1,2-b]pyridazine-3-carboxamide], for which the Dmax is over 80% and the DC50 is over 5 nM.

The molecule `Cn1c(=O)n(C2CCC(=O)NC2=O)c2cccc(N3CCN(C[C@H]4CC[C@H](n5cc(-n6cc(-c7cnn8ccc(NCCC(C)(C)O)nc78)nn6)c(C(F)F)n5)CC4)CC3)c21` (stereo partly shown) [Compound 239] displayed a Dmax of over 80%. Moreover, for the setting “read-out: DC50”, the DC50 was under 0.5 nM.
